Measurements published in PubChem BioAssay (NCI).
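Results reflect a 48-hour exposure of cells in 96-well plates to compound at five concentrations. Abbreviation: GI50, concentration required for 50% inhibition of growth. TGI is the concentration that stops growth completely.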

Tests used:
Experiment in all cases: inhibition of tumour cell growth, NCI panel, 48 h
OVCAR-5 ovarian = system: OVCAR-5 ovarian
HOP-92 NSCLC = system: HOP-92 NSCLC
SN12C renal = system: SN12C renal
SK-MEL-28 melanoma = system: SK-MEL-28 melanoma
SK-OV-3 ovarian = system: SK-OV-3 ovarian
SR leukemia = system: SR leukemia
PC-3 prostate = system: PC-3 prostate
K-562 leukemia = system: K-562 leukemia
IGROV1 ovarian = system: IGROV1 ovarian
DU-145 prostate = system: DU-145 prostate

SMILES	GI50 (OVCAR-5 ovarian) [µM]	TGI (OVCAR-5 ovarian) [µM]	GI50 (HOP-92 NSCLC) [µM]	TGI (HOP-92 NSCLC) [µM]	GI50 (SN12C renal) [µM]	TGI (SN12C renal) [µM]	GI50 (SK-MEL-28 melanoma) [µM]	TGI (SK-MEL-28 melanoma) [µM]	GI50 (SK-OV-3 ovarian) [µM]	TGI (SK-OV-3 ovarian) [µM]	GI50 (SR leukemia) [µM]	TGI (SR leukemia) [µM]	GI50 (PC-3 prostate) [µM]	TGI (PC-3 prostate) [µM]	GI50 (K-562 leukemia) [µM]	TGI (K-562 leukemia) [µM]	GI50 (IGROV1 ovarian) [µM]	TGI (IGROV1 ovarian) [µM]	GI50 (DU-145 prostate) [µM]	TGI (DU-145 prostate) [µM]
O=C1C(Cl)=C(Oc2ccccc2)C(=O)c2ccccc21	16.7	31.7	1.8	4.56	11.2	29.5	13.5	27.1	6.51	23.6	4.49	39.1	4.34	20.9	3.17	> 100	2.96	9.63	16.2	31
COc1ccc2c(CN3CCC(CO)CC3)cc3cc4c(cc3c2c1)OCO4	0.344	10.6	0.0911	0.633	0.247	4.37	0.326	1.15	0.326	3.83	0.0666	0.712	0.236	1.02	0.15	3.07	0.305	11.6	0.25	12.6
COc1ccc(-n2c(-c3ccc(NC(=O)CCCl)cc3)nnc2-c2cc(OC)c(OC)c(OC)c2)cc1	6.85	> 14.3	4.1	> 14.3	7.33	> 14.3	3.56	14	4.34	> 14.3	3.12	12.7	4.45	> 14.3			2.9	> 14.3	2.77	8.67
C=C1C(=O)OC2C1C(OC(=O)/C(C)=C/C)CC(O)(CCl)C1C(OC(C)=O)C=C(C)C21O (stereo not given)		31.9		27.9		40.4		27.9		> 100		26.1		30.8		> 37.4		30		29
NCCCn1c2c(c3ccccc3c1=O)C(=O)c1cc3c(cc1-2)OCO3	1.54	4.08	0.568	15.9	0.276	1.05	2.23	9.37	1.93	13			1.22	7.41	0.2	4.23	0.374	9.2	0.137	0.638
COC(=O)c1ccc(-c2nc3cc(F)c(F)cc3nc2C#N)cc1	12.1	32.6	9.8	21.1	1.66	4.9	9.58	33.9	9.77	17.2	1.25	2.77	11.7	26.6	1.9	16.3	9.62	20.4	8.7	17.3
Nc1nc(SCC(=O)O)[nH]c(=O)c1N		> 100		> 100		30.5		> 100		> 100		77.7		> 100		36.9		> 100		> 100
O=C1CC2(CCCc3sccc32)C(=O)N1 (stereo not given)		> 100		> 100		> 100		> 100		> 100				> 100		> 100		> 100		> 100
